The results in this text go back to PubChem BioAssay (NCI).

Holding throughout (assay): NCI anticancer screen, dose series, 48 h
Assay [1] relates to HCC-2998 colon.
Assay [2] has as its system OVCAR-3 ovarian.
The subject of assay [3] is HL-60(TB) leukemia.
Assay [4] relates to A498 renal.
Assay [5] deals with RPMI-8226 leukemia.
Assay [6] has as its system PC-3 prostate.
In assay [7] the test system is SF-268 CNS.
For assay [8], the system named is CCRF-CEM leukemia.
Assay [9] concerns SK-MEL-2 melanoma.
The test system of assay [10] is SK-OV-3 ovarian.
In assay [11] the test system is M14 melanoma.
Assay [12] concerns SK-MEL-5 melanoma.
For assay [13], the system named is MOLT-4 leukemia.
The test system of assay [14] is OVCAR-8 ovarian.
The test system of assay [15] is HOP-62 NSCLC.
The test system of assay [16] is UO-31 renal.
Assay [17] has as its system CAKI-1 renal.
Assay [18] relates to COLO 205 colon.
Assay [19] deals with SN12C renal.
The test system of assay [20] is DU-145 prostate.

Each structure is given as a SMILES string.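 Briefly, cells in 96-well plates were exposed to five compound concentrations for 48 h, and endpoints were estimated by linear interpolation. Definition used: TGI = concentration required for complete inhibition of growth.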

Regarding `Cc1ccc(CCCCCOc2ccc(C3=NCCO3)cc2)s1`, the TGI in [1] was > 100 µM; in assay [2] it was > 100 µM; in assay [3] it was > 100 µM; in [4] it was 4.47 µM; in assay [5], > 100 µM; in assay [6] it was > 100 µM. In addition, the TGI in assay [7], in [8], in [9], in assay [10], in assay [11] and in [12] was > 100 µM in each case. Further, the TGI in assay [13], in assay [14], in assay [15], in assay [16], in assay [17] and in assay [18] was > 100 µM throughout. Moreover, the TGI in assay [19] and in assay [20] was > 100 µM each time.
For `CC(C)(C)[Si](C)(C)OCC#C[C@@]1(O)CCCCC1CC(Sc1ccccc1)Sc1ccccc1` (some centres not stated), the TGI in assay [1] was 30.7 µM; in [2], 26.4 µM; in assay [3], 41.9 µM; in assay [4], 30.4 µM; in [5], 73.3 µM; in [6] it was 26.3 µM. Further, the TGI turned out to be 39.5 µM in [8]; 31.7 µM in assay [9]; 34.4 µM in [10]; 35.5 µM in assay [11]; 29.2 µM in [12]; 51 µM in [13]. Further, the TGI in [14] worked out at 35.1 µM; in assay [15], 31.4 µM; in assay [16] it was 26.9 µM; in [17] it was 23.2 µM; in [18], 31.6 µM; in assay [19], 23.8 µM. The TGI in assay [20] stood at 29.8 µM.
As to `CN(C)CCNC(=O)c1cc(-c2nccn2C)nc2ccccc12`, the TGI in assay [1], in [3], in assay [4], in [5], in assay [6] and in assay [7] was > 100 µM throughout. Also, the TGI in [8], in assay [9], in [11], in assay [12], in assay [13] and in assay [14] was > 100 µM each time. Further, the TGI in assay [15], in [16], in assay [17], in [18], in assay [19] and in assay [20] was > 100 µM in each case.
With `CN(C)/C=C/c1nnnn1-c1ccc(I)cc1`, the TGI was > 100 µM in assay [1]; 54.5 µM in assay [2]; 25.7 µM in assay [3]; > 100 µM in assay [4]; 46.5 µM in assay [5]; 46.2 µM in assay [6]. For the same compound, the TGI is 51 µM in [7]; 25.9 µM in assay [8]; 53.3 µM in [10]; 40.6 µM in assay [11]; 33 µM in assay [12]; 34.1 µM in [13]. The TGI in assay [14] was 72.2 µM; in [15] it was > 100 µM; in assay [16] it was 39.1 µM; in assay [17], 50.6 µM; in assay [18], > 100 µM; in assay [19], > 100 µM. For the same compound, the TGI in assay [20] came out at 74.5 µM.
As to `NS(=O)(=O)c1nnc(/N=C(/CCC(=O)O)C(=O)O)s1`, the TGI in assay [1], in [2], in assay [3], in assay [4], in assay [5] and in assay [6] was > 100 µM throughout. Further, the TGI in assay [8], in assay [9], in assay [10], in [11], in [12] and in [13] was > 100 µM each time. The TGI in [14], in [15], in [16], in assay [17], in assay [18] and in [19] was > 100 µM each time. The TGI in assay [20] was > 100 µM.
For `Nc1ncc(CN2CCOCC2)c(-c2ccccc2O)n1`, the TGI in [2], in assay [3], in assay [4], in assay [5], in assay [6] and in assay [7] was > 100 µM throughout. In addition, the TGI in assay [8], in assay [9], in assay [10], in assay [11], in [12] and in assay [13] was > 100 µM in each case. The TGI in [14], in assay [15], in [16], in assay [17], in assay [18] and in assay [19] was > 100 µM in each case. Besides, the TGI in assay [20] was > 100 µM.
Turning to `Cc1nn(C(=O)Cc2ccccc2)c2c1C(c1ccccc1[N+](=O)[O-])SC(N)=N2` (configuration not stated), the TGI in [1], in assay [3], in assay [4], in assay [5], in assay [6] and in [7] was > 100 µM throughout. In addition, the TGI in [8], in assay [10], in assay [11], in assay [12], in assay [13] and in [14] was > 100 µM each time. For the same compound, the TGI in [15], in [16], in assay [17], in assay [18], in assay [19] and in assay [20] was > 100 µM each time.
As for `CC[N+]1(C)CCC(O)(/C=C/c2ccc(Cl)cc2)C(C(=O)/C=C/c2ccc(Cl)cc2)C1` (configuration not stated), the TGI in assay [1] is 45.1 µM; in assay [2] it was > 61 µM; in assay [3] it was 4.87 µM; in assay [4] it was 30.2 µM; in [6], 27.7 µM; in [7], > 60.6 µM. In addition, the TGI is 3.85 µM in assay [8]; 39 µM in [9]; 36.8 µM in [10]; > 38 µM in assay [11]; > 45.8 µM in [12]; 6.52 µM in assay [13]. Moreover, the TGI was 51 µM in assay [14]; 39.3 µM in assay [15]; 20.2 µM in assay [16]; 3.71 µM in assay [17]; > 26.5 µM in assay [18]; 27.1 µM in [19]. Further, the TGI in assay [20] is 27.6 µM.
Regarding `COc1cc(C2(O)c3ccccc3C3=NCCN32)cc(OC)c1OC` (configuration not stated), the TGI in assay [1], in assay [2], in assay [3], in assay [4], in assay [5] and in assay [6] was > 100 µM throughout. The TGI in assay [7], in assay [8], in [9], in assay [10], in assay [12] and in assay [13] was > 100 µM in each case. In addition, the TGI in assay [15], in assay [16], in [17], in assay [18], in [19] and in [20] was > 100 µM in each case.
Take `Cc1cc(-c2nc3cc(O)ccc3s2)ccc1N`: the TGI in [1] was > 100 µM; in [2], 67.3 µM; in assay [3] it was > 100 µM; in assay [4], 61.7 µM; in [6] it was > 100 µM; in [7], > 100 µM. In addition, the TGI in assay [8] was 96.8 µM; in assay [9], 74.4 µM; in [10], 77.1 µM; in assay [11], 52.4 µM; in assay [12], 48 µM; in [13], > 100 µM. In addition, the TGI is > 100 µM in assay [14]; > 100 µM in assay [15]; 78.8 µM in assay [16]; > 100 µM in assay [17]; 49.8 µM in assay [18]; 74.2 µM in assay [19]. Besides, in assay [20], the TGI was > 100 µM.
`CN1CCN(CCCCN2c3ccccc3Sc3ccc(N=[N+]=[N-])cc32)CC1`: the TGI worked out at 18.3 µM in assay [1]; 22.6 µM in assay [2]; 3.69 µM in assay [3]; 29.9 µM in assay [4]; 5.61 µM in [5]; 15.9 µM in assay [6]. For the same compound, the TGI was found to be 28.2 µM in assay [7]; 7.75 µM in assay [8]; 12.9 µM in assay [9]; 3.83 µM in [11]; 4.62 µM in [12]; 7.24 µM in assay [13]. The TGI in [14] came out at 29.8 µM; in assay [15] it was 33.8 µM; in [16], 21.8 µM; in assay [17] it was 22.1 µM; in assay [18], 3.51 µM; in assay [19], 26.1 µM. For the same compound, the TGI in [20] was 26.6 µM.
For the compound `OC(C/C(=N\N=C(/CC(O)(C(F)(F)F)C(F)(F)F)c1ccccc1)c1ccccc1)(C(F)(F)F)C(F)(F)F`, the TGI in [1], in assay [2], in assay [3], in [4], in [5] and in [6] was > 10 µM in each case. Also, the TGI in [7], in [8], in [9], in [10], in [11] and in assay [12] was > 10 µM in each case. Also, the TGI in [13], in assay [14], in [15], in assay [17], in [18] and in assay [19] was > 10 µM throughout. In assay [20], the TGI was > 10 µM.
Take `CC(=O)OCC1OC(n2c(C)c(C(C)=O)c(-c3cccc4ccccc34)c(C#N)c2=S)C(OC(C)=O)C(OC(C)=O)C1OC(C)=O` (configuration not stated): the TGI in assay [1], in assay [2], in [3], in assay [4], in [6] and in assay [7] was > 100 µM in each case. Further, the TGI in assay [8], in assay [9], in assay [10], in [11], in assay [12] and in [13] was > 100 µM each time. The TGI in assay [14] was > 100 µM; in [15], > 100 µM; in assay [16] it was 0.249 µM; in assay [17], > 100 µM; in assay [18] it was > 100 µM; in assay [19] it was > 100 µM. Also, the TGI in assay [20] is > 100 µM.
Consider `COc1ccc2c(c1)CCCN1Cc3ccccc3CC21` (configuration not stated), for which the TGI in [1] was > 100 µM; in assay [2] it was > 100 µM; in assay [3] it was > 100 µM; in assay [4], 96.8 µM; in assay [6] it was > 100 µM; in [7], > 100 µM. For the same compound, the TGI in assay [8] is > 100 µM; in assay [10], > 100 µM; in assay [11], > 100 µM; in [12], 56.7 µM; in assay [13], > 100 µM; in assay [14], > 100 µM. Also, the TGI in assay [15], in [16], in assay [17], in [18], in [19] and in assay [20] was > 100 µM in each case.
Consider `COC(=O)/C(=C\c1cn(C(C)=O)c2ccccc12)P(=O)(OC)OC`, for which the TGI in [1] was 30.4 µM; in assay [2] it was 32.4 µM; in assay [3], > 100 µM; in assay [4], 31.4 µM; in assay [5], 93.9 µM; in [6] it was 39.8 µM. The TGI was 54 µM in assay [7]; > 100 µM in assay [8]; 39.2 µM in assay [10]; 28.5 µM in assay [11]; 26.5 µM in assay [12]; > 100 µM in assay [13]. Moreover, the TGI stood at 68.9 µM in [14]; 28.8 µM in [15]; 26.1 µM in [16]; 27 µM in assay [17]; 33.3 µM in assay [18]; 28 µM in [19]. The compound also displayed a TGI in assay [20] of 26.2 µM.
